We go through 23 compounds from US20240391931A1 (Bristol-Myers Squibb Company, priority 2021, published 2024).

The target of test [1] is T1, EGFR WT (Homo sapiens, UniProt P00533).
T1 construct: purchased Thermo Fisher, Carlsbad, CA ERBB1 PR7295B
The test is described as follows: Enzymatic assay EGFR WT (method c). It is filed as biochemical. The conditions noted are these: [EGFR WT]=2 nM, [ATP]=1 mM, [Peptide 22]=1 μM. The essentials: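 Initial rates over 0–3600 s, read as substrate-to-product conversion by capillary electrophoresis, were converted to percent inhibition and fitted with a variable-slope curve to give IC50. Conditions: EGFR WT 2 nM with 1 mM ATP; HER2 YVMA 5 nM or HER2 WT 12.5 nM, each with 25 μM ATP. All used 1 μM Peptide 22 in pH 7.5 HEPES/Mn/Mg buffer.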

Test [2] has as its target EGFR (Homo sapiens, UniProt P00533). Briefly: EGFR signaling (pEGFR Tyr1068/total EGFR MSD) in A431 cells. Also noted: endogenous in cells; host or cells: A431, N87. It is filed as cell-based. Conditions: for EC50: A431 cells, read-out: A431 pEGFR EC50; for Selectivity A431 EC50/BT474 EC50: ratio A431 pEGFR EC50 to BT474 pHER2 EC50; for Selectivity A431 EC50/HEKYVMA EC50: ratio A431 pEGFR EC50 to HEK YVMA pHER2 EC50. The essentials:
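EC50 was fitted with variable Hill slope from MSD pTyr1068/total EGFR ratios, expressed as % DMSO control. A431 cells were starved overnight, then exposed 1.5 h to eight concentrations from 10 to 0.005 μM in 1% FBS before a 10-min 100 ng/mL EGF pulse.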

SMILES strings stand for the structures.

What is called IC50 is the concentration at which inhibition is half-maximal. One may read the EC50 as the concentration that produces a half-maximal response.

Sequence of EGFR (P00533 25-1210): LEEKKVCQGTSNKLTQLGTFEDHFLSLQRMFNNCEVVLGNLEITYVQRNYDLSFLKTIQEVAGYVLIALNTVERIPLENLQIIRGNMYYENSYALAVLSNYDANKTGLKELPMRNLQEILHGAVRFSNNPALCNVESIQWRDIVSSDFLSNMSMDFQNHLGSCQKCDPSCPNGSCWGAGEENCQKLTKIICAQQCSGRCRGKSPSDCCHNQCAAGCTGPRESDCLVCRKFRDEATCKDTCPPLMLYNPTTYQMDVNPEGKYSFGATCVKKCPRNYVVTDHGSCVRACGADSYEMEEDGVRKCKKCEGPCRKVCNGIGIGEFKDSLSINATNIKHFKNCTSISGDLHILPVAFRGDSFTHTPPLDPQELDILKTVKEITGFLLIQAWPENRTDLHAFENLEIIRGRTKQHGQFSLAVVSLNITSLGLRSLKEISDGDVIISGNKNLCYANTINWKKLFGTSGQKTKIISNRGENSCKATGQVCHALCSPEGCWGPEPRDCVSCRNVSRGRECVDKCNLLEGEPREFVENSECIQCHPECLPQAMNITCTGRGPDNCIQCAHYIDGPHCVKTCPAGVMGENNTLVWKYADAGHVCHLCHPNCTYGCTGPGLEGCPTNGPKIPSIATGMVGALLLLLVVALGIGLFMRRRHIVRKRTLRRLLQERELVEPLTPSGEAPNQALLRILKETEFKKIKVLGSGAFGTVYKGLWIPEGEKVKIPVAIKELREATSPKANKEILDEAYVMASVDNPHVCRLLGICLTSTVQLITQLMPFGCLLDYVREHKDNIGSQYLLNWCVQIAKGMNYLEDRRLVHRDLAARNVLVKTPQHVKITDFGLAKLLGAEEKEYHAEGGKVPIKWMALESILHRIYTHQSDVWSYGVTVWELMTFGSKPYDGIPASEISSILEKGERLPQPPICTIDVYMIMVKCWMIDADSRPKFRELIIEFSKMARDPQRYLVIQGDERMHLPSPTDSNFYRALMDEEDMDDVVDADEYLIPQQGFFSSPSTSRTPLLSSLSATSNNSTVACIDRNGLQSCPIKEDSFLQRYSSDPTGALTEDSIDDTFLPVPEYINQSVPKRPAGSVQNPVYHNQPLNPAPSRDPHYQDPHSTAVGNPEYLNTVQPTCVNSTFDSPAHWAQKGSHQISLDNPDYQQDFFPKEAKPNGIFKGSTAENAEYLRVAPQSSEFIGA
T1 sequence (P00533 25-1210): as above

`CC(=O)N1CCN(C/C=C/C(=O)N2CCc3c(sc4ncnc(Nc5ccc(Oc6ccc(C)nc6)c(C)c5)c34)C2)CC1` [Compound 51] returned a half-inhibitory concentration (IC50) in test [1] greater than 10 µM. In test [2], the EC50 lay within 1 to 10 µM; the “Selectivity A431 EC50/BT474 EC50” value was “C (C: ≥ 10 and < 20)”; the “Selectivity A431 EC50/HEKYVMA EC50” value is “E (E: >1 and < 5)”.
Regarding `Cc1ccc(Oc2ccc(Nc3ncnc4sc5c(c34)CCN(C(=O)/C=C/CN3CCC4(CCOC4)C3)C5)cc2C)cn1` (centres unmarked) [Compound 67], the IC50 in test [1] is greater than 10 µM. Moreover, in test [2], the concentration for a half-maximal effect (EC50) is less than 0.1 µM; the “Selectivity A431 EC50/BT474 EC50” value is “D (D: ≥ 5 and < 10)”; the “Selectivity A431 EC50/HEKYVMA EC50” value is “D (D: ≥ 5 and < 10)”.
In the case of `Cc1ccc(Oc2ccc(Nc3ncnc4sc5c(c34)CCN(C(=O)/C=C/CN3CC4CC3CO4)C5)cc2C)cn1` (centres unmarked) [Compound 26], the concentration for half-maximal inhibition (IC50) in test [1] was greater than 10 µM. In test [2], the EC50 is less than 0.1 µM; the “Selectivity A431 EC50/BT474 EC50” value was “D (D: ≥ 5 and < 10)”; the “Selectivity A431 EC50/HEKYVMA EC50” value is “D (D: ≥ 5 and < 10)”.
Consider `C=CC(=O)N1CCc2c(sc3ncnc(Nc4ccc(Oc5ccc6ncnn6c5)c(Cl)c4)c23)C1` [Compound 4, 1-(4-((4-([1,2,4]triazolo[1,5-a]pyridin-6-yloxy)-3-chlorophenyl)amino)-5,8-dihydropyrido[4′,3′:4,5]thieno[2,3-d]pyrimidin-7(6H)-yl)prop-2-en-1-one], for which the half-maximal inhibitory concentration (IC50) in test [1] is greater than 10 µM. Also, in test [2], the EC50 lay in the range of 0.1 to 1 µM; the “Selectivity A431 EC50/BT474 EC50” value is “B (B: ≥ 20 and < 100)”; the “Selectivity A431 EC50/HEKYVMA EC50” value is reported as “A (A: ≥100)”.
With `Cc1ccc(Oc2ccc(Nc3ncnc4sc5c(c34)CCN(C(=O)/C=C/CN3CCCC3C(N)=O)C5)cc2C)cn1` (centres unmarked) [Compound 41], in test [1], the 50% inhibitory concentration (IC50) fell in the range of 1 to 10 µM. Besides, in test [2], the EC50 is less than 0.1 µM; the “Selectivity A431 EC50/BT474 EC50” value is “B (B: ≥ 20 and < 100)”; the “Selectivity A431 EC50/HEKYVMA EC50” value is “C (C: ≥ 10 and < 20)”.
Take `Cc1ncc(Oc2ccc(Nc3ncnc4sc5c(c34)CCN(C(=O)/C=C/CN(C)C)C5)cc2C)cn1` [Compound 21, (E)-4-(dimethylamino)-1-(4-((3-methyl-4-((2-methylpyrimidin-5-yl)oxy)phenyl)amino)-5,8-dihydropyrido[4′,3′:4,5]thieno[2,3-d]pyrimidin-7(6H)-yl)but-2-en-1-one]: the IC50 in test [1] was greater than 10 µM. Also, in test [2], the half-maximal effective concentration (EC50) was in the range of 0.1 to 1 µM; the “Selectivity A431 EC50/BT474 EC50” value was “B (B: ≥ 20 and < 100)”; the “Selectivity A431 EC50/HEKYVMA EC50” value is “B (B: ≥ 20 and < 100)”.
In test [1], `Cc1ccc(Oc2ccc(Nc3ncnc4sc5c(c34)CCN(C(=O)/C=C/CNCc3cc(C)n[nH]3)C5)cc2C)cn1` [Compound 49] came in with an IC50 of 1 to 10 µM. Besides, in test [2], the 50% effective concentration (EC50) was in the range of 0.1 to 1 µM; the “Selectivity A431 EC50/BT474 EC50” value is “B (B: ≥ 20 and < 100)”; the “Selectivity A431 EC50/HEKYVMA EC50” value is “D (D: ≥ 5 and < 10)”.
In test [1], `Cc1ccc(Oc2ccc(Nc3ncnc4sc5c(c34)CCN(C(=O)/C=C/CN[C@@H](C)CO)C5)cc2C)cn1` [Compound 75] gave an IC50 of 1 to 10 µM. In test [2], the 50% effective concentration (EC50) was less than 0.1 µM; the “Selectivity A431 EC50/BT474 EC50” value is “D (D: ≥ 5 and < 10)”; the “Selectivity A431 EC50/HEKYVMA EC50” value was “D (D: ≥ 5 and < 10)”.
As for `Cc1ccc(Oc2ccc(Nc3ncnc4sc5c(c34)CCN(C(=O)/C=C/CNCC3CN(C)CCO3)C5)cc2C)cn1` (centres unmarked) [Compound 48], the half-maximal inhibitory concentration (IC50) in test [1] was greater than 10 µM. In test [2], the 50% effective concentration (EC50) is 0.1 to 1 µM; the “Selectivity A431 EC50/BT474 EC50” value was “B (B: ≥ 20 and < 100)”; the “Selectivity A431 EC50/HEKYVMA EC50” value was “B (B: ≥ 20 and < 100)”.
As to `CCOC/C=C/C(=O)N1CCc2c(sc3ncnc(Nc4ccc(Oc5ccc(C)nc5)c(C)c4)c23)C1` [Compound 96, (E)-4-ethoxy-1-(4-((3-methyl-4-((6-methylpyridin-3-yl)oxy)phenyl)amino)-5,8-dihydropyrido[4′,3′:4,5]thieno[2,3-d]pyrimidin-7(6H)-yl)but-2-en-1-one], the IC50 in test [1] was greater than 10 µM. In test [2], the concentration for a half-maximal effect (EC50) is 0.1 to 1 µM; the “Selectivity A431 EC50/BT474 EC50” value is “C (C: ≥ 10 and < 20)”; the “Selectivity A431 EC50/HEKYVMA EC50” value was “D (D: ≥ 5 and < 10)”.
On to `C=CC(=O)N1CCc2[nH]c3ncnc(Nc4ccc(Oc5ccc(C)nc5)c(C)c4)c3c2C1` [Compound 94, 1-(4-((3-methyl-4-((6-methylpyridin-3-yl)oxy)phenyl)amino)-7,8-dihydro-5H-pyrido[3′,4′:4,5]pyrrolo[2,3-d]pyrimidin-6(9H)-yl)prop-2-en-1-one], for which the IC50 in test [1] was greater than 10 µM. In test [2], the EC50 lay within 0.1 to 1 µM; the “Selectivity A431 EC50/BT474 EC50” value is “C (C: ≥ 10 and < 20)”; the “Selectivity A431 EC50/HEKYVMA EC50” value is “E (E: >1 and < 5)”.
In test [1], `Cc1ccc(Oc2ccc(Nc3ncnc4sc5c(c34)CCN(C(=O)/C=C/CN3C4CCC3CC4)C5)cc2C)cn1` [Compound 44] yielded an IC50 of 1 to 10 µM. Also, in test [2], the 50% effective concentration (EC50) was in the range of 0.1 to 1 µM; the “Selectivity A431 EC50/BT474 EC50” value is “D (D: ≥ 5 and < 10)”; the “Selectivity A431 EC50/HEKYVMA EC50” value was “E (E: >1 and < 5)”.
In test [1], `Cc1cc(Nc2ncnc3sc4c(c23)CCN(C(=O)/C=C/CN2CC(C)(C)OC(C)(C)C2)C4)ccc1Oc1ccc2ncnn2c1` [Compound 84] had an IC50 greater than 10 µM. Besides, in test [2], the EC50 was greater than 10 µM; the “Selectivity A431 EC50/BT474 EC50” value is reported as “A (A: ≥100)”; the “Selectivity A431 EC50/HEKYVMA EC50” value was “B (B: ≥ 20 and < 100)”.
`Cc1ccc(Oc2ccc(Nc3ncnc4sc5c(c34)CCN(C(=O)/C=C/CN3CCC(n4ccnc4)CC3)C5)cc2C)cn1` [Compound 62] returned a half-maximal inhibitory concentration (IC50) in test [1] greater than 10 µM. In addition, in test [2], the EC50 is 0.1 to 1 µM; the “Selectivity A431 EC50/BT474 EC50” value was “B (B: ≥ 20 and < 100)”; the “Selectivity A431 EC50/HEKYVMA EC50” value was “E (E: >1 and < 5)”.
In turn, `Cc1ccc(Oc2ccc(Nc3ncnc4sc5c(c34)CCN(C(=O)/C=C/CN3CC(O)C3)C5)cc2C)cn1` [Compound 53] returned an IC50 in test [1] greater than 10 µM. In test [2], the EC50 fell in the range of 1 to 10 µM; the “Selectivity A431 EC50/BT474 EC50” value is “C (C: ≥ 10 and < 20)”; the “Selectivity A431 EC50/HEKYVMA EC50” value is “D (D: ≥ 5 and < 10)”.
In turn, `Cc1ccc(Oc2ccc(Nc3ncnc4sc5c(c34)CCN(C(=O)/C=C/CNCCO)C5)cc2C)cn1` [Compound 65] came in with a concentration for half-maximal inhibition (IC50) in test [1] of 1 to 10 µM. Also, in test [2], the EC50 was 0.1 to 1 µM; the “Selectivity A431 EC50/BT474 EC50” value was “D (D: ≥ 5 and < 10)”; the “Selectivity A431 EC50/HEKYVMA EC50” value is “E (E: >1 and < 5)”.
Turning to `Cc1ccc(Oc2ccc(Nc3ncnc4sc5c(c34)CCN(C(=O)/C=C/CNC3CCC(C(=O)N(C)C)CC3)C5)cc2C)cn1` (centres unmarked) [Compound 71], the IC50 in test [1] lay in the range of 1 to 10 µM. In test [2], the concentration giving a half-maximal response (EC50) was less than 0.1 µM; the “Selectivity A431 EC50/BT474 EC50” value is listed as “A (A: ≥100)”; the “Selectivity A431 EC50/HEKYVMA EC50” value was “E (E: >1 and < 5)”.
Take `Cc1cc(Nc2ncnc3sc4c(c23)CCN(C(=O)/C=C/CN(C)C)C4)ccc1Oc1cccc(B(O)O)c1` [Compound 64, (E)-(3-(4-((7-(4-(dimethylamino)but-2-enoyl)-5,6,7,8-tetrahydropyrido[4′,3′:4,5]thieno[2,3-d]pyrimidin-4-yl)amino)-2-methylphenoxy)phenyl)boronic acid]: the concentration for half-maximal inhibition (IC50) in test [1] was in the range of 1 to 10 µM. Also, in test [2], the EC50 lay in the range of 0.1 to 1 µM; the “Selectivity A431 EC50/BT474 EC50” value was “C (C: ≥ 10 and < 20)”; the “Selectivity A431 EC50/HEKYVMA EC50” value is “E (E: >1 and < 5)”.
Consider `O=C(/C=C/CN1CC2CC1CO2)N1CCc2c(sc3ncnc(Nc4ccc(Oc5ccc6ncnn6c5)c(Cl)c4)c23)C1` (centres unmarked) [Compound 87], for which the IC50 in test [1] is 1 to 10 µM. In test [2], the half-maximal effective concentration (EC50) is less than 0.1 µM; the “Selectivity A431 EC50/BT474 EC50” value is “B (B: ≥ 20 and < 100)”; the “Selectivity A431 EC50/HEKYVMA EC50” value was “D (D: ≥ 5 and < 10)”.
With `Cc1ccc(Oc2ccc(Nc3ncnc4sc5c(c34)CCN(C(=O)/C=C/CNC34CCC(C#N)(CC3)CC4)C5)cc2C)cn1` [Compound 72], in test [1], the IC50 fell in the range of 1 to 10 µM. In test [2], the EC50 was less than 0.1 µM; the “Selectivity A431 EC50/BT474 EC50” value is “D (D: ≥ 5 and < 10)”; the “Selectivity A431 EC50/HEKYVMA EC50” value is “E (E: >1 and < 5)”.
With `Cc1cc(Nc2ncnc3sc4c(c23)CCN(C(=O)/C=C/CN2CC3CC(C3)C2)C4)ccc1Oc1ccc2ncnn2c1` [Compound 82], the IC50 in test [1] is greater than 10 µM. For the same compound, in test [2], the EC50 is 0.1 to 1 µM; the “Selectivity A431 EC50/BT474 EC50” value is “C (C: ≥ 10 and < 20)”; the “Selectivity A431 EC50/HEKYVMA EC50” value is “C (C: ≥ 10 and < 20)”.
Regarding `Cc1cc(Nc2ncnc3sc4c(c23)CCN(C(=O)/C=C/CN2CC3CC2CO3)C4)ccc1Oc1ccc2ncnn2c1` (centres unmarked) [Compound 77], the IC50 in test [1] was greater than 10 µM. Further, in test [2], the EC50 is 1 to 10 µM; the “Selectivity A431 EC50/BT474 EC50” value was “B (B: ≥ 20 and < 100)”; the “Selectivity A431 EC50/HEKYVMA EC50” value was “D (D: ≥ 5 and < 10)”.
The compound `Cc1ccc(Oc2ccc(Nc3ncnc4sc5c(c34)CCCN(C(=O)/C=C/CN(C)C)C5)cc2C)cn1` [Compound 101, (E)-4-(Dimethylamino)-1-(4-((3-methyl-4-((6-methylpyridin-3-yl)oxy)phenyl)amino)-6,7-dihydro-5H-pyrimido[5′,4′:4,5]thieno[2,3-c]azepin-8(9H)-yl)but-2-en-1-one] had an IC50 in test [1] greater than 10 µM. Besides, in test [2], the EC50 was 0.1 to 1 µM; the “Selectivity A431 EC50/BT474 EC50” value is “C (C: ≥ 10 and < 20)”; the “Selectivity A431 EC50/HEKYVMA EC50” value was “C (C: ≥ 10 and < 20)”.
